Key:
Assay in all cases: radiometric filter-binding kinase assay, Kinase HotSpot
Conditions in all cases: compound 0.5 µM; ATP 10 µM
AURKB (human) = AURKB (human) (UniProt Q96GD4)
PRKD3 (human) = PRKD3 (human) (UniProt O94806)
STK16 (human) = STK16 (human) (UniProt O75716)
BRSK2 (human) = BRSK2 (human) (UniProt Q8IWQ3)
ERBB4 (human) = ERBB4 (human) (UniProt Q15303)
SRMS (human) = SRMS (human) (UniProt Q9H3Y6)
CAMK1G (human) = CAMK1G (human) (UniProt Q96NX5)
WEE1 (human) = WEE1 (human) (UniProt P30291)
STK4 (human) = STK4 (human) (UniProt Q13043)
PDGFRA (human) = PDGFRA (human) (UniProt P16234)
MAP3K14 (human) = MAP3K14 (human) (UniProt Q99558)
CSK (human) = CSK (human) (UniProt P41240)
EPHA2 (human) = EPHA2 (human) (UniProt P29317)
CSNK2A1 (human) = CSNK2A1 (human) (UniProt P68400)
MAP3K7 TAB1 (human) = MAP3K7 TAB1 (human) (UniProt O43318+Q15750)
TEK (human) = TEK (human) (UniProt Q02763)
MAP3K2 (human) = MAP3K2 (human) (UniProt Q9Y2U5)
SYK (human) = SYK (human) (UniProt P43405)
IKBKE (human) = IKBKE (human) (UniProt Q14164)
CAMK2D (human) = CAMK2D (human) (UniProt Q13557)
CDK9 CCNK (human) = CDK9 CCNK (human) (UniProt O75909+P50750)
CDK6 CCND1 (human) = CDK6 CCND1 (human) (UniProt Q00534+P24385)
CAMK1 (human) = CAMK1 (human) (UniProt Q14012)
MAP3K11 (human) = MAP3K11 (human) (UniProt Q16584)
STK10 (human) = STK10 (human) (UniProt O94804)
AKT2 (human) = AKT2 (human) (UniProt P31751)
PAK7 (human) = PAK7 (human) (UniProt Q9P286)
PRKCB1 (human) = PRKCB1 (human) (UniProt P05771)
CAMK2B (human) = CAMK2B (human) (UniProt Q13554)
MAP3K3 (human) = MAP3K3 (human) (UniProt Q99759)
PDPK1 (human) = PDPK1 (human) (UniProt O15530)
ROS1 (human) = ROS1 (human) (UniProt P08922)
PRKG2 (human) = PRKG2 (human) (UniProt Q13237)
ZAP70 (human) = ZAP70 (human) (UniProt P43403)
PRKCZ (human) = PRKCZ (human) (UniProt Q05513)
MAPK10 (human) = MAPK10 (human) (UniProt P53779)
MAP3K9 (human) = MAP3K9 (human) (UniProt P80192)
RAF1 (human) = RAF1 (human) (UniProt P04049)
DYRK1B (human) = DYRK1B (human) (UniProt Q9Y463)
CDK1 CCNB1 (human) = CDK1 CCNB1 (human) (UniProt P06493+P14635)
KIT (human) = KIT (human) (UniProt P10721)
AURKC (human) = AURKC (human) (UniProt Q9UQB9)

Sequence of AKT2 (human) (P31751 whole entry, looked up): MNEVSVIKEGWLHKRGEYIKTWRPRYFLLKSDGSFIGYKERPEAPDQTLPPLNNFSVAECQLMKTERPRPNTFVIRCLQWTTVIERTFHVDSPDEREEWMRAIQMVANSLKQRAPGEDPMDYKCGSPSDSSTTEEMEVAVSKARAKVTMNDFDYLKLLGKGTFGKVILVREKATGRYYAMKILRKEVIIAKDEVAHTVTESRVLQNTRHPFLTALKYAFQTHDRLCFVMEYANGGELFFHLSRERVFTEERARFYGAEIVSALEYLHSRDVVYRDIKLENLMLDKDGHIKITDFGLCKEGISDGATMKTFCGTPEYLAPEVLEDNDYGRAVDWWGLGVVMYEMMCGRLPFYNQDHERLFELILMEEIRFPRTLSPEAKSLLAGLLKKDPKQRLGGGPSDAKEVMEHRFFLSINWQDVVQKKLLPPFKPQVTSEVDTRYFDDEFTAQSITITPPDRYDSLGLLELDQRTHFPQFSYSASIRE
Sequence of DYRK1B (human) (Q9Y463 whole entry, looked up): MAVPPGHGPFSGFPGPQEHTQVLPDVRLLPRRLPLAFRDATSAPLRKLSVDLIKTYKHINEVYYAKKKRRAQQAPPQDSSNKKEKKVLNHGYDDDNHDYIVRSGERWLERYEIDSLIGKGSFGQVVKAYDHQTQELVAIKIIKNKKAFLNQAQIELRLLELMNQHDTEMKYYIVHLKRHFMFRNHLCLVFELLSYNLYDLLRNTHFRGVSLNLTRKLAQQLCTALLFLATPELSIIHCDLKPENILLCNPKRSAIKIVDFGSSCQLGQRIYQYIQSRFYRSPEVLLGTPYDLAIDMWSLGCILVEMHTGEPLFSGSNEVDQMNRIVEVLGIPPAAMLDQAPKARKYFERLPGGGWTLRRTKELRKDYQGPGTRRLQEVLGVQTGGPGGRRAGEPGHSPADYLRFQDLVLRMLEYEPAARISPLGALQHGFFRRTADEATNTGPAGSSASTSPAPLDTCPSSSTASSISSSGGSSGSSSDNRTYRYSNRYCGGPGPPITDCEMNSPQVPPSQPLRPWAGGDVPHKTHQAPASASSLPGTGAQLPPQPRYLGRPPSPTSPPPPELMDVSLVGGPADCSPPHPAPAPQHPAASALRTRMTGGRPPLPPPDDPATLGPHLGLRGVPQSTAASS
Sequence of PDPK1 (human) (O15530 whole entry, looked up): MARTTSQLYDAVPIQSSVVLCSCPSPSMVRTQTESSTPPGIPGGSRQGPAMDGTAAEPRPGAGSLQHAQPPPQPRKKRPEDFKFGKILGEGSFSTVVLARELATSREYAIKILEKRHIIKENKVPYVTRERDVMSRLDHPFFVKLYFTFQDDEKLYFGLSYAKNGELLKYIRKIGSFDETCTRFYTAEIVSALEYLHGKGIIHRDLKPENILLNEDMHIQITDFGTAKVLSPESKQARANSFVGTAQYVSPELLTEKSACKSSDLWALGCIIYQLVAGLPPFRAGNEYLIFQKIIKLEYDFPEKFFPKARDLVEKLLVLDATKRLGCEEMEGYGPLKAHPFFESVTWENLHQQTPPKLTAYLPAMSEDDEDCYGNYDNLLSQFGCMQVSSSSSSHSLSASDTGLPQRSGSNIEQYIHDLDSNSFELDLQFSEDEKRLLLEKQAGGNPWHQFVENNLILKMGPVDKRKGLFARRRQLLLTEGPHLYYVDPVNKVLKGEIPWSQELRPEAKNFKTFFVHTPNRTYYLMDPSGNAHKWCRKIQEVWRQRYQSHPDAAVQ
Sequence of CAMK1G (human) (Q96NX5 whole entry, looked up): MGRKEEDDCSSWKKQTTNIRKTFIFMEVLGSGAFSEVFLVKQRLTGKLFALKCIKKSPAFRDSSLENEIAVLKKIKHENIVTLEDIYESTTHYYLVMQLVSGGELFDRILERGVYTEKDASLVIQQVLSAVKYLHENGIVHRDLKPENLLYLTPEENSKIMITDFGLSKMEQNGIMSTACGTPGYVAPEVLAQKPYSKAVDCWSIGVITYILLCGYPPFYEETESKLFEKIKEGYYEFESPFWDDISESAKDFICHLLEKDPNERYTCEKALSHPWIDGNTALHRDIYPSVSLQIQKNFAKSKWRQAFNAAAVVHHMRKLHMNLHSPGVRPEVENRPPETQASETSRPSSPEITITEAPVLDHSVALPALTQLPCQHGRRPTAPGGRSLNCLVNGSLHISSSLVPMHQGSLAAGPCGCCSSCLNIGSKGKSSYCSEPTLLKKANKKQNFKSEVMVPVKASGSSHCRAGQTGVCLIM
Sequence of RAF1 (human) (P04049 whole entry, looked up): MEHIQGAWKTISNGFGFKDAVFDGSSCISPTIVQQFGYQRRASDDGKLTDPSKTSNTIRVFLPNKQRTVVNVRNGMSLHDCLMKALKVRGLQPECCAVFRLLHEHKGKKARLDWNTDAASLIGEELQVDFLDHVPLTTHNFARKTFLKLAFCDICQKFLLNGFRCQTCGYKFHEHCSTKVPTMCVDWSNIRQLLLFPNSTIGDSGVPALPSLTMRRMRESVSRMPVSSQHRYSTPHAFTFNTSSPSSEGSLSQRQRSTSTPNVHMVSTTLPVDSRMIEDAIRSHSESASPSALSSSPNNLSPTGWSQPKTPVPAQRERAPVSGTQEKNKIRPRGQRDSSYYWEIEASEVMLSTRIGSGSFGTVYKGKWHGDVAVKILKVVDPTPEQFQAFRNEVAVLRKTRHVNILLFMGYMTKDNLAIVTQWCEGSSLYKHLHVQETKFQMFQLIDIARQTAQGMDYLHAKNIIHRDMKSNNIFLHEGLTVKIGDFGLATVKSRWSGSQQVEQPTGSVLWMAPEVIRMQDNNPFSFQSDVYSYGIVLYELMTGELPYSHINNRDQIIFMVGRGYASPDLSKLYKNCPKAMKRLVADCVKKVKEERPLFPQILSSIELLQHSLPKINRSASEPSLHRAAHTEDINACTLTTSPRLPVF
Sequence of MAP3K9 (human) (P80192 whole entry, looked up): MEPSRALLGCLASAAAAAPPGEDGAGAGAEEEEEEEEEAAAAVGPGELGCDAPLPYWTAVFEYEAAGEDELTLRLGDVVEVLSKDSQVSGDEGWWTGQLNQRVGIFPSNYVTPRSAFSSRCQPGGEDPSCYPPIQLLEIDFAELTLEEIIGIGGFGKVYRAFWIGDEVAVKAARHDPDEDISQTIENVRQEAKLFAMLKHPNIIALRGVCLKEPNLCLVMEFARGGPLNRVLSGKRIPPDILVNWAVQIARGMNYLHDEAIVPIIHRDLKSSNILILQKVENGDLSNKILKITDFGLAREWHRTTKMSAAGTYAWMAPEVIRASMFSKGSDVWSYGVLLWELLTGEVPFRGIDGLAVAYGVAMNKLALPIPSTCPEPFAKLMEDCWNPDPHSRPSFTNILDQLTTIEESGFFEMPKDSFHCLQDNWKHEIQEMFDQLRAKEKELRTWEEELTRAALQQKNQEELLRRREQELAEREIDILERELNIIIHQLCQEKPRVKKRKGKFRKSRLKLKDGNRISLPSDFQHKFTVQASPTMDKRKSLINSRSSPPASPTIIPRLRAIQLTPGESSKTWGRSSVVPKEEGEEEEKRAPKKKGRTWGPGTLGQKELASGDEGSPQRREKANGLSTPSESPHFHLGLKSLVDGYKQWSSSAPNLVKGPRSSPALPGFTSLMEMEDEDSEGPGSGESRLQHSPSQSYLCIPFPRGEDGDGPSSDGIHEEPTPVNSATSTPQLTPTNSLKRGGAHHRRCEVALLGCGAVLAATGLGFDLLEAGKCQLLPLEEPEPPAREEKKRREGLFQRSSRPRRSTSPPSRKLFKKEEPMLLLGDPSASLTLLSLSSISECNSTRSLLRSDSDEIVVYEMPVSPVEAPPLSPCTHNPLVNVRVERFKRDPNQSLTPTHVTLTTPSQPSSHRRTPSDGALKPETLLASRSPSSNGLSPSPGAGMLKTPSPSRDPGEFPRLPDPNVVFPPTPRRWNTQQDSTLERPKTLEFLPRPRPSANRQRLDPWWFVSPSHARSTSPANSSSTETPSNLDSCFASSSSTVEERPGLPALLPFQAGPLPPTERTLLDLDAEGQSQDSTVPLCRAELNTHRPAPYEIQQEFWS
Sequence of CSNK2A1 (human) (P68400 whole entry, looked up): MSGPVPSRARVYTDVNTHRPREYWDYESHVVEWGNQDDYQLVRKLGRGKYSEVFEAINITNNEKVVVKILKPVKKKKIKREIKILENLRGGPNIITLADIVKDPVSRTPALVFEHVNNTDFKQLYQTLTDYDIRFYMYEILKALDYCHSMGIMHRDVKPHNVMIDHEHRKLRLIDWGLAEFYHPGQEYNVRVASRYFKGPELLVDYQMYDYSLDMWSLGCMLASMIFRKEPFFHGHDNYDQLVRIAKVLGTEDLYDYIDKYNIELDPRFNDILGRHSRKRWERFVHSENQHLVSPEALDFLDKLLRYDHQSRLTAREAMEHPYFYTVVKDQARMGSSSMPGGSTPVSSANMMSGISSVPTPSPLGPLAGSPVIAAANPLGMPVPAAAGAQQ
Sequence of BRSK2 (human) (Q8IWQ3 whole entry, looked up): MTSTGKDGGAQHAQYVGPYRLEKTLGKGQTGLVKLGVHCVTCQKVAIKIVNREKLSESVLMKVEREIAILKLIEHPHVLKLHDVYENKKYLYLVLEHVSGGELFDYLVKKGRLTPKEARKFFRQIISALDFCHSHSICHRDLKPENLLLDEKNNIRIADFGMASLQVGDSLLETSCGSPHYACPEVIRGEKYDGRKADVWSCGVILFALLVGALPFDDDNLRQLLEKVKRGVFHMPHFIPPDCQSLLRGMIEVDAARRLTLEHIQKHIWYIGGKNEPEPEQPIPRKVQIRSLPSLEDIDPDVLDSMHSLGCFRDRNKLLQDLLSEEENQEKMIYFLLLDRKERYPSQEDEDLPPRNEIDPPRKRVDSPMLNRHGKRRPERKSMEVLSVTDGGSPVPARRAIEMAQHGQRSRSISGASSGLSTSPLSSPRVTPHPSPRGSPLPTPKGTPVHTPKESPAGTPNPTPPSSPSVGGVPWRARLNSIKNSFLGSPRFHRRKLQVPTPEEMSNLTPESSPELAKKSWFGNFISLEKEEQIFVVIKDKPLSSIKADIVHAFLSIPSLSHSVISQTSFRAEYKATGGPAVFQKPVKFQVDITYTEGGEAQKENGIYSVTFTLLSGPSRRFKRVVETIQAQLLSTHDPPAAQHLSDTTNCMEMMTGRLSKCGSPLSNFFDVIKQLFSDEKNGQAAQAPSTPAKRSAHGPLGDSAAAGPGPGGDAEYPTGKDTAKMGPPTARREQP

O=C1Cc2c([nH]c3ccc([N+](=O)[O-])cc23)-c2ccccc2N1
residual activity (AURKB (human)): 85.9% | residual activity (PRKD3 (human)): 88.2% | residual activity (STK16 (human)): 93.1% | residual activity (BRSK2 (human)): 34.5% | residual activity (ERBB4 (human)): 87.3% | residual activity (SRMS (human)): 92.9% | residual activity (CAMK1G (human)): 96% | residual activity (WEE1 (human)): 98.2% | residual activity (STK4 (human)): 52.3% | residual activity (PDGFRA (human)): 91.7% | residual activity (MAP3K14 (human)): 132% | residual activity (CSK (human)): 96.6% | residual activity (EPHA2 (human)): 92.7% | residual activity (CSNK2A1 (human)): 86.8% | residual activity (MAP3K7 TAB1 (human)): 67.5% | residual activity (TEK (human)): 92.1% | residual activity (MAP3K2 (human)): 78% | residual activity (SYK (human)): 53.9% | residual activity (IKBKE (human)): 93.4% | residual activity (CAMK2D (human)): 79.3% | residual activity (CDK9 CCNK (human)): 24.2% | residual activity (CDK6 CCND1 (human)): 16.8% | residual activity (CAMK1 (human)): 94.8% | residual activity (MAP3K11 (human)): 11.8% | residual activity (STK10 (human)): 80.4% | residual activity (AKT2 (human)): 101% | residual activity (PAK7 (human)): 71.4% | residual activity (PRKCB1 (human)): 105% | residual activity (CAMK2B (human)): 98.1% | residual activity (MAP3K3 (human)): 100% | residual activity (PDPK1 (human)): 93.7% | residual activity (ROS1 (human)): 80.2% | residual activity (PRKG2 (human)): 97.6% | residual activity (ZAP70 (human)): 91.4% | residual activity (PRKCZ (human)): 109% | residual activity (MAPK10 (human)): 97.2% | residual activity (MAP3K9 (human)): 10.5% | residual activity (RAF1 (human)): 114% | residual activity (DYRK1B (human)): 87.5% | residual activity (CDK1 CCNB1 (human)): 23.2% | residual activity (KIT (human)): 83.7%

Nc1nc(Nc2ccc(S(N)(=O)=O)cc2)nn1C(=S)Nc1c(F)cccc1F
residual activity (AURKB (human)): 12.9% | residual activity (PRKD3 (human)): 7.37% | residual activity (STK16 (human)): 42.5% | residual activity (BRSK2 (human)): 9.03% | residual activity (ERBB4 (human)): 98% | residual activity (SRMS (human)): 94% | residual activity (CAMK1G (human)): 95.9% | residual activity (AURKC (human)): 16.2% | residual activity (WEE1 (human)): 100% | residual activity (STK4 (human)): 2.16% | residual activity (PDGFRA (human)): 56.4% | residual activity (MAP3K14 (human)): 29.1% | residual activity (CSK (human)): 76.8% | residual activity (EPHA2 (human)): 29.9% | residual activity (CSNK2A1 (human)): 76.6% | residual activity (MAP3K7 TAB1 (human)): 12.5% | residual activity (TEK (human)): 5.06% | residual activity (MAP3K2 (human)): -0.498% | residual activity (SYK (human)): 15.5% | residual activity (IKBKE (human)): 67.2% | residual activity (CAMK2D (human)): 15.6% | residual activity (CDK9 CCNK (human)): 7.46% | residual activity (CDK6 CCND1 (human)): 2.89% | residual activity (MAP3K11 (human)): 1.33% | residual activity (STK10 (human)): 3.96% | residual activity (AKT2 (human)): 103% | residual activity (PAK7 (human)): 43.8% | residual activity (PRKCB1 (human)): 75.2% | residual activity (CAMK2B (human)): 9.5% | residual activity (MAP3K3 (human)): 5.41% | residual activity (PDPK1 (human)): 19.3% | residual activity (ROS1 (human)): 1.68% | residual activity (PRKG2 (human)): 61.4% | residual activity (ZAP70 (human)): 86.9% | residual activity (PRKCZ (human)): 83.7% | residual activity (MAPK10 (human)): 105% | residual activity (MAP3K9 (human)): -0.373% | residual activity (RAF1 (human)): 110% | residual activity (DYRK1B (human)): 14.1% | residual activity (CDK1 CCNB1 (human)): -1.78% | residual activity (KIT (human)): 78.4%

Nc1nc(Nc2ccc(S(N)(=O)=O)cc2)nn1C(=O)c1c(F)cccc1F
residual activity (PRKD3 (human)): 55.6% | residual activity (STK16 (human)): 48.5% | residual activity (BRSK2 (human)): 49% | residual activity (ERBB4 (human)): 110% | residual activity (SRMS (human)): 96.5% | residual activity (CAMK1G (human)): 101% | residual activity (AURKC (human)): 28.3% | residual activity (WEE1 (human)): 83.6% | residual activity (STK4 (human)): 19.9% | residual activity (PDGFRA (human)): 82% | residual activity (MAP3K14 (human)): 106% | residual activity (CSK (human)): 88.9% | residual activity (EPHA2 (human)): 80.9% | residual activity (CSNK2A1 (human)): 104% | residual activity (MAP3K7 TAB1 (human)): 77.4% | residual activity (TEK (human)): 84.2% | residual activity (MAP3K2 (human)): 11.3% | residual activity (SYK (human)): 61.6% | residual activity (IKBKE (human)): 95.9% | residual activity (CAMK2D (human)): 94.6% | residual activity (CDK9 CCNK (human)): 27.4% | residual activity (CDK6 CCND1 (human)): 17.1% | residual activity (CAMK1 (human)): 90.4% | residual activity (MAP3K11 (human)): 47.2% | residual activity (STK10 (human)): 17% | residual activity (AKT2 (human)): 107% | residual activity (PAK7 (human)): 85.4% | residual activity (PRKCB1 (human)): 88.2% | residual activity (CAMK2B (human)): 99.7% | residual activity (MAP3K3 (human)): 27.5% | residual activity (PDPK1 (human)): 92.3% | residual activity (ROS1 (human)): 39.5% | residual activity (PRKG2 (human)): 92.2% | residual activity (ZAP70 (human)): 94.8% | residual activity (PRKCZ (human)): 99.9% | residual activity (MAPK10 (human)): 100% | residual activity (MAP3K9 (human)): 25.6% | residual activity (RAF1 (human)): 95.7% | residual activity (DYRK1B (human)): 87.6% | residual activity (CDK1 CCNB1 (human)): 5.65% | residual activity (KIT (human)): 81.7%

Reference: the kinase profiling compilation of Christmann-Franck et al. (2016)
